# Laboratory results: patent US8580825B2, “Oxadiazole inhibitors of leukotriene production” (Boehringer Ingelheim International GmbH, priority 2010, dated 2013)
# Key:
# [1] = tested on: synthesis of LTB4 in human whole blood; experiment: human whole blood LTB4 production inhibition assay; assay type: cell-based; conditions: calcimycin stimulated, read-out: hWB LTB4 IC50
# Experimental: Compounds are additionally tested in a human whole blood assay to determine their ability to inhibit the synthesis of LTB4 in a cellular system. Compounds are combined with heparinized human whole blood and incubated for 15 minutes at 37° C. Calcimycin (20 μM final, prepared in phosphate-buffered saline, pH 7.4) is then added and the mixture is incubated for another 30 minutes at 37° C. The samples are centrifuged for 5 min at low speed (1500×g) and the plasma layer is removed. Plasma LTB4 concentrations are then measured using an antibody-based homogenous time-resolved fluorescence method (CisBio, Bedford, Mass.).
# [2] = molecular target: T1, recombinant human FLAP protein (Homo sapiens, UniProt P20292); experiment: FLAP binding assay (Scintillation Proximity Assay, displacement of [125I]L-691,831); conditions: for IC50: read-out: FLAP SPA IC50
# T1 construct: made in house; host or cells: Sf9 insect cells (100,000xg membrane fraction used)
# T1 sequence (P20292 1-161): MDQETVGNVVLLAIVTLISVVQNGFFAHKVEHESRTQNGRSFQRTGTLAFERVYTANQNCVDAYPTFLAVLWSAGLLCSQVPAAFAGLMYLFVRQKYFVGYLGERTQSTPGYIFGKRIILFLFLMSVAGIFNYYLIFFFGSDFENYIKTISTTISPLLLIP
# Experimental: Compounds are assessed for the ability to bind to FLAP in a binding assay that measures compound-specific displacement of an iodinated (^125I) FLAP inhibitor via a Scintillation Proximity Assay format (adapted from S. Charleson et al., Mol. Pharmacol., 1992, 41, 873-879).
# Cell pellets produced from sf9 insect cells expressing recombinant human FLAP protein are resuspended in buffer A [15 mM Tris-HCl (pH 7.5), 2 mM MgCl2, 0.3 mM EDTA, 1 mM PMSF]. The cells are lysed with a Dounce homogenizer and the material is centrifuged at 10,000×g for 10 minutes. The supernatant is then collected and centrifuged at 100,000×g for 60 minutes. To prepare membrane protein for an assay, an aliquot of the 100,000×g pellet is resuspended in 1 ml of buffer A, Dounce homogenized, and finally subjected to polytron mixing (30 seconds). Membrane protein (25 μl, 5 μg) is mixed with WGA SPA beads (Amersham) and stirred for 1 h. […] (final concentrations: beads, 200 μg/well; protein, 5 μg/well; [^125I] probe, 0.08 nM/well (17 nCi/well). The plates are shaken for 2 h before reading on a Microbeta plate reader. Non-specific binding is determined by the addition of 10 μM cold L-691,831 compound.
Compound,IC50 [1],IC50 [2],inhibition at 1 µM ([2]; read-out: FLAP SPA inhibition at 1 uM)
"CC(C)C(C)(c1ccc(-c2cnc(N)nc2)nc1)c1noc(NCCO)n1 (centres unmarked) [Example 25, 2-[(3-{2-[6-(2-aminopyrimidin-5-yl)pyridin-3-yl]-3-methylbutan-2-yl}-1,2,4-oxadiazol-5-yl)amino]ethanol]",> 5000 nM,520 nM,–
"CC(C)C(C)(c1ccc(-c2cnc(N)nc2)nc1)c1noc(N2CCNCC2)n1 (centres unmarked) [Example 26, 5-(5-{3-methyl-2-[5-(piperazin-1-yl)-1,2,4-oxadiazol-3-yl]butan-2-yl}pyridin-2-yl)pyrimidin-2-amine]",3900 nM,400 nM,–
"COCCOCCn1cc(-c2nc(C(C)(c3ccc(-c4cnc(N)nc4)nc3)C(C)C)no2)cn1 (centres unmarked) [Example 30, 5-{5-[2-(5-{1-[2-(2-methoxyethoxy)ethyl]-1H-pyrazol-4-yl}-1,2,4-oxadiazol-3-yl)-3-methylbutan-2-yl]pyridin-2-yl}pyrimidin-2-amine]",160 nM,12 nM,–
"CC(C)C(C)(c1ccc(-c2cnc(N)nc2)nc1)c1noc(-c2ccc(NCC(C)(C)O)nn2)n1 (centres unmarked) [Example 32, 1-{[6-(3-{2-[6-(2-aminopyrimidin-5-yl)pyridin-3-yl]-3-methylbutan-2-yl}-1,2,4-oxadiazol-5-yl)pyridazin-3-yl]amino}-2-methylpropan-2-ol]",860 nM,17.3 nM,–
"CCOC(=O)C(C)(C)Cn1cc(-c2nc(C(C)(c3ccc(-c4cnc(N)nc4)nc3)C(C)C)no2)cn1 (centres unmarked) [Example 33, ethyl 3-[4-(3-{2-[6-(2-aminopyrimidin-5-yl)pyridin-3-yl]-3-methylbutan-2-yl}-1,2,4-oxadiazol-5-yl)-1H-pyrazol-1-yl]-2,2-dimethylpropanoate]",210 nM,5.2 nM,–
"CC(C)[C@@](C)(c1ccc(-c2cnc(N)nc2)nc1)c1noc(-c2cnn(C(C)(C)CO)c2)n1 [Example 35, 2-[4-(3-{(2S)-2-[6-(2-aminopyrimidin-5-yl)pyridin-3-yl]-3-methylbutan-2-yl}-1,2,4-oxadiazol-5-yl)-1H-pyrazol-1-yl]-2-methylpropan-1-ol]",3200 nM,210 nM,–
"Cc1ccc(C)n1-c1ncc(-c2ccc(C(C)(c3noc(-c4cn[nH]c4)n3)C(C)C)cn2)cn1 (centres unmarked) [Example 36, 2-(2,5-dimethyl-1H-pyrrol-1-yl)-5-(5-{3-methyl-2-[5-(1H-pyrazol-4-yl)-1,2,4-oxadiazol-3-yl]butan-2-yl}pyridin-2-yl)pyrimidine]",> 5000 nM,–,30%
"CC(C)[C@@](C)(c1ccc(-c2cnc(N)nc2)nc1)c1noc(-c2cnn(CC(C)(C)O)c2)n1 [Example 37, 1-[4-(3-{(2S)-2-[6-(2-aminopyrimidin-5-yl)pyridin-3-yl]-3-methylbutan-2-yl}-1,2,4-oxadiazol-5-yl)-1H-pyrazol-1-yl]-2-methylpropan-2-ol]",> 5000 nM,168 nM,–
"CC(C)C(C)(c1ccc(-c2cnc(N)nc2)nc1)c1noc(-c2cnn(CC(C)(C)C(=O)O)c2)n1 (centres unmarked) [Example 39, 3-[4-(3-{2-[6-(2-aminopyrimidin-5-yl)pyridin-3-yl]-3-methylbutan-2-yl}-1,2,4-oxadiazol-5-yl)-1H-pyrazol-1-yl]-2,2-dimethylpropanoic acid]",> 5000 nM,20.4 nM,–
"CCNc1cnc(-c2nc([C@](C)(c3ccc(-c4cnc(N)nc4)nc3)C(C)C)no2)cn1 [Example 40, 5-{5-[(2S)-2-{5-[5-(ethylamino)pyrazin-2-yl]-1,2,4-oxadiazol-3-yl}-3-methylbutan-2-yl]pyridin-2-yl}pyrimidin-2-amine]",100 nM,7.9 nM,–
"CCNc1ccc(-c2nc(C(C)(c3ccc(-c4cnc(N)nc4)nc3)C(C)C)no2)nn1 (centres unmarked) [Example 42, 6-(3-{2-[6-(2-aminopyrimidin-5-yl)pyridin-3-yl]-3-methylbutan-2-yl}-1,2,4-oxadiazol-5-yl)-N-ethylpyridazin-3-amine]",210 nM,8.3 nM,–
"CC(C)[C@@](C)(c1ccc(-c2cnc(N)nc2)nc1)c1noc(-c2cnn(CC(F)F)c2)n1 [Example 45, 5-{5-[(2S)-2-{5-[1-(2,2-difluoroethyl)-1H-pyrazol-4-yl]-1,2,4-oxadiazol-3-yl}-3-methylbutan-2-yl]pyridin-2-yl}pyrimidin-2-amine]",1400 nM,141 nM,–
"COCCOCCn1cc(-c2nc([C@@](C)(c3ccc(-c4cnc(N)nc4)nc3)C(C)C)no2)cn1 [Example 46, 5-{5-[(2R)-2-(5-{1-[2-(2-methoxyethoxy)ethyl]-1H-pyrazol-4-yl}-1,2,4-oxadiazol-3-yl)-3-methylbutan-2-yl]pyridin-2-yl}pyrimidin-2-amine]",98 nM,5 nM,–
"COCCOCCn1cc(-c2nc([C@](C)(c3ccc(-c4cnc(N)nc4)nc3)C(C)C)no2)cn1 [Example 47, 5-{5-[(2S)-2-(5-{1-[2-(2-methoxyethoxy)ethyl]-1H-pyrazol-4-yl}-1,2,4-oxadiazol-3-yl)-3-methylbutan-2-yl]pyridin-2-yl}pyrimidin-2-amine]",2000 nM,180 nM,–
"CC(C)[C@@](C)(c1ccc(-c2cnc(N)nc2)nc1)c1noc(-c2cnn(CCF)c2)n1 [Example 49, 5-{5-[(2S)-2-{5-[1-(2-fluoroethyl)-1H-pyrazol-4-yl]-1,2,4-oxadiazol-3-yl}-3-methylbutan-2-yl]pyridin-2-yl}pyrimidin-2-amine]",1100 nM,80.9 nM,–

# Now those with a lower IC50 [1], led by results:
IC50 [1],IC50 [2],inhibition at 1 µM ([2]; read-out: FLAP SPA inhibition at 1 uM),Compound
94 nM,6.6 nM,–,"CC(C)[C@](C)(c1ccc(-c2cnc(N)nc2)nc1)c1noc(-c2cnn(C(C)(C)CO)c2)n1 [Example 34, 2-[4-(3-{(2R)-2-[6-(2-aminopyrimidin-5-yl)pyridin-3-yl]-3-methylbutan-2-yl}-1,2,4-oxadiazol-5-yl)-1H-pyrazol-1-yl]-2-methylpropan-1-ol]"
72 nM,3.8 nM,–,"CC(C)n1cc(-c2nc(C(C)(c3ccc(-c4cnc(N)nc4)nc3)C(C)C)no2)cn1 (centres unmarked) [Example 28, 5-[5-(3-methyl-2-{5-[1-(propan-2-yl)-1H-pyrazol-4-yl]-1,2,4-oxadiazol-3-yl}butan-2-yl)pyridin-2-yl]pyrimidin-2-amine]"
71 nM,7.5 nM,–,"COCCNc1ccc(-c2nc(C(C)(c3ccc(-c4cnc(N)nc4)nc3)C(C)C)no2)nn1 (centres unmarked) [Example 27, 6-(3-{2-[6-(2-aminopyrimidin-5-yl)pyridin-3-yl]-3-methylbutan-2-yl}-1,2,4-oxadiazol-5-yl)-N-(2-methoxyethyl)pyridazin-3-amine]"
40 nM,4 nM,–,"CCn1cc(-c2nc(C(C)(c3ccc(-c4cnc(N)nc4)nc3)C(C)C)no2)cn1 (centres unmarked) [Example 29, 5-(5-{2-[5-(1-ethyl-1H-pyrazol-4-yl)-1,2,4-oxadiazol-3-yl]-3-methylbutan-2-yl}pyridin-2-yl)pyrimidin-2-amine]"
34 nM,1.8 nM,–,"CCNc1cnc(-c2nc([C@@](C)(c3ccc(-c4cnc(N)nc4)nc3)C(C)C)no2)cn1 [Example 41, 5-{5-[(2R)-2-{5-[5-(ethylamino)pyrazin-2-yl]-1,2,4-oxadiazol-3-yl}-3-methylbutan-2-yl]pyridin-2-yl}pyrimidin-2-amine]"
33 nM,6.4 nM,–,"CC(C)[C@](C)(c1ccc(-c2cnc(N)nc2)nc1)c1noc(-c2cnn(CC(C)(C)O)c2)n1 [Example 38, 1-[4-(3-{(2R)-2-[6-(2-aminopyrimidin-5-yl)pyridin-3-yl]-3-methylbutan-2-yl}-1,2,4-oxadiazol-5-yl)-1H-pyrazol-1-yl]-2-methylpropan-2-ol]"
32 nM,1.2 nM,–,"CC(C)[C@](C)(c1ccc(-c2cnc(N)nc2)nc1)c1noc(-c2cn[nH]c2)n1 [Example 43, 5-(5-{(2R)-3-methyl-2-[5-(1H-pyrazol-4-yl)-1,2,4-oxadiazol-3-yl]butan-2-yl}pyridin-2-yl)pyrimidin-2-amine]"
24 nM,0.9 nM,–,CC(C)[C@](C)(c1ccc(-c2cnc(N)nc2)nc1)c1noc(-c2cnn(CC(F)F)c2)n1 [Example 44]
20 nM,2.6 nM,–,"CC(C)[C@](C)(c1ccc(-c2cnc(N)nc2)nc1)c1noc(-c2cnn(CCF)c2)n1 [Example 48, 5-{5-[(2R)-2-{5-[1-(2-fluoroethyl)-1H-pyrazol-4-yl]-1,2,4-oxadiazol-3-yl}-3-methylbutan-2-yl]pyridin-2-yl}pyrimidin-2-amine]"
12 nM,1.4 nM,–,"CC(C)[C@](C)(c1ccc(-c2cnc(N)nc2)nc1)c1noc(-c2cnn(C3COC3)c2)n1 [Example 31, 5-{5-[(2R)-3-methyl-2-{5-[1-(oxetan-3-yl)-1H-pyrazol-4-yl]-1,2,4-oxadiazol-3-yl}butan-2-yl]pyridin-2-yl}pyrimidin-2-amine]"
